Assay [1] has as its system MCF7. In words: Inhibition of mammospheres formation in human MCF7 cells incubated for 10 days. It is filed as functional, cell-based.
Assay [2] has as its system MCF7. Briefly: Inhibition of RhoGEF in human MCF7 cells derived mammospheres assessed as inhibition of RhoA-mediated phospho-MLC formation at 2.5 uM in presence of 2.5 uM Rhosin/G04 incubated for 24 hrs by densitometry. Format: cell-based.
In assay [3] the test system is MCF7. In words: Inhibition of RhoGEF in human MCF7 cells derived mammospheres assessed as inhibition of 10% calf serum-induced RhoA-GTP formation by measuring relative RhoA-GTP level incubated for 24 hrs by densitometry (reference value: 1). Format: cell-based.
Assay [4] relates to MCF7. Briefly: Inhibition of RhoGEF in human MCF7 cells derived mammospheres assessed as inhibition of 10% calf serum-induced RhoA-GTP formation by measuring relative RhoA-GTP level at 2.5 uM in presence of 2.5 uM Rhosin/G04 incubated for 24 hrs by densitometry (reference value: 1). Format: cell-based.
The test system of assay [5] is MCF7. Briefly: Inhibition of cell invasion of human MCF7 cells at 2.5 to 25 uM in presence of 2.5 to 25 uM Rhosin/G04 by Matrigel-coated transwell based assay. Format: functional.
Assay [6] is filed under the species Mus musculus. In words: Inhibition of RhoGEF in mouse NIH/3T3 cells assessed as inhibition of 10% calf serum-induced Rac1-GTP formation by measuring relative Rac1-GTP level at 50 uM in presence of 50 uM Rhosin/G04 incubated for 24 hrs by densitometry (reference value: 1). It is filed as cell-based.
The species named for assay [7] is Mus musculus. Briefly: Inhibition of RhoGEF in mouse NIH/3T3 cells assessed as inhibition of 10% calf serum-induced RhoA-GTP formation by measuring relative RhoA-GTP level at 15 uM in presence of 15 uM Rhosin/G04 incubated for 24 hrs by densitometry (reference value: 1). Format: cell-based.
The species named for assay [8] is Mus musculus. In words: Inhibition of RhoGEF in mouse NIH/3T3 cells assessed as inhibition of 10% calf serum-induced RhoA-GTP formation by measuring relative RhoA-GTP level at 5 uM in presence of 5 uM Rhosin/G04 incubated for 24 hrs by densitometry (reference value: 1). It is filed as cell-based.
For assay [9], the species on record is Mus musculus. Briefly: Inhibition of RhoGEF in mouse NIH/3T3 cells assessed as inhibition of 10% calf serum-induced RhoA-GTP formation by measuring relative RhoA-GTP level at 2.5 uM in presence of 2.5 uM Rhosin/G04 incubated for 24 hrs by densitometry (reference value: 1). It is filed as cell-based.
The species named for assay [10] is Mus musculus. In words: Inhibition of RhoGEF in mouse NIH/3T3 cells assessed as inhibition of 10% calf serum-induced RhoA-GTP formation by measuring relative RhoA-GTP level at 50 uM incubated for 24 hrs by densitometry (reference value: 1). It is filed as cell-based.
Assay [11] concerns the target T1, RhoGEF 1/Transforming protein RhoA (Homo sapiens) (UniProt P61586+Q92888). Briefly: Binding affinity to human LARG (765 to 1138 residues) DH-PH module expressed in mouse NIH/3T3 cells assessed as reduction in LARG binding to human full length RhoA (1 to 193 residues) by measuring relative LARG binding level at 30 uM pull-down assay (reference value: 1 No unit). It is filed as cell-based.

Assay [12] addresses T1, RhoGEF 1/Transforming protein RhoA (Homo sapiens). Briefly: Binding affinity to human LARG (765 to 1138 residues) DH-PH module expressed in mouse NIH/3T3 cells assessed as reduction in LARG binding to human full length RhoA (1 to 193 residues) by measuring relative LARG binding level at 10 uM pull-down assay (reference value: 1 No unit). It is filed as cell-based.
For assay [13] the target is unchanged. In words: Binding affinity to human LARG (765 to 1138 residues) DH-PH module expressed in mouse NIH/3T3 cells assessed as reduction in LARG binding to human full length RhoA (1 to 193 residues) by measuring relative LARG binding level at 5 uM pull-down assay (reference value: 1 No unit). It is filed as cell-based.
The species entered for assay [14] is Mus musculus. Briefly: Inhibition of RhoGEF in mouse NIH/3T3 cells assessed as inhibition of 10% calf serum-induced RhoA-GTP formation by measuring reduction in RhoA-GTP level at 2.5 uM in presence of 2.5 uM Rhosin/G04 incubated for 24 hrs by densitometry relative to control. Format: cell-based.
Assay [15] concerns the target T2, Rho guanine nucleotide exchange factor 12 (Homo sapiens, UniProt Q9NZN5). Briefly: Inhibition of human LARG (765 to 1138 residues) RhoGEF binding to human full length RhoA (1 to 193 residues) in presence of Rhosin/G04.
Assay [16] has as its system Transforming protein RhoA (Homo sapiens), P61586 [Q63L]. In words: Inhibition of constitutively active RhoA Q63L mutant (unknown origin) expressed in mouse NIH/3T3 cells assessed as reduction in 10% calf serum-induced focal adhesion complex formation at 50 uM by anti-vinculin antibody staining based assay. It is filed as cell-based.
For assay [17] the test system is unchanged. In words: Inhibition of constitutively active RhoA Q63L mutant (unknown origin) expressed in mouse NIH/3T3 cells assessed as reduction in 10% calf serum-induced actin stress fiber formation at 50 uM by rhodamine-phalloidin staining based assay. It is filed as cell-based.
The species named for assay [18] is Mus musculus. In words: Inhibition of RhoGEF-mediated Rac1 signaling in mouse NIH/3T3 cells assessed as reduction in PDGF-stimulated Rac1-mediated lamellipodia formation at 10 to 30 uM. It is filed as cell-based.
For assay [19], the species on record is Mus musculus. Briefly: Inhibition of RhoGEF-mediated RhoA signaling in mouse NIH/3T3 cells assessed as reduction in 10% calf serum-induced stress fiber and focal complex formation 30 uM incubated for 24 hrs. It is filed as cell-based.
For assay [20], the species on record is Mus musculus. Briefly: Inhibition of RhoGEF-mediated RhoA signaling in mouse NIH/3T3 cells assessed as inhibition of SDF1a-induced phospho-MLC formation at 10 to 30 uM incubated for 24 hrs by densitometry. Format: cell-based.
Assay [21] deals with Intersectin-1 (Homo sapiens) (UniProt Q15811). Briefly: Inhibition of GST-tagged human intersectin-1 (1227 to 1571 residues) RhoGEF-catalyzed guanine nucleotide-exchange reaction of human full length Cdc42 (1 to 191 residues) by measuring inhibition of the GDP dissociation from Cdc42 at 0.76 to 250000 nM by Alexa 647 fluorescence dye based GDP/GTP exchange assay.
Chain of Intersectin-1 (Homo sapiens) (Q15811 whole entry, the tested form may be a part): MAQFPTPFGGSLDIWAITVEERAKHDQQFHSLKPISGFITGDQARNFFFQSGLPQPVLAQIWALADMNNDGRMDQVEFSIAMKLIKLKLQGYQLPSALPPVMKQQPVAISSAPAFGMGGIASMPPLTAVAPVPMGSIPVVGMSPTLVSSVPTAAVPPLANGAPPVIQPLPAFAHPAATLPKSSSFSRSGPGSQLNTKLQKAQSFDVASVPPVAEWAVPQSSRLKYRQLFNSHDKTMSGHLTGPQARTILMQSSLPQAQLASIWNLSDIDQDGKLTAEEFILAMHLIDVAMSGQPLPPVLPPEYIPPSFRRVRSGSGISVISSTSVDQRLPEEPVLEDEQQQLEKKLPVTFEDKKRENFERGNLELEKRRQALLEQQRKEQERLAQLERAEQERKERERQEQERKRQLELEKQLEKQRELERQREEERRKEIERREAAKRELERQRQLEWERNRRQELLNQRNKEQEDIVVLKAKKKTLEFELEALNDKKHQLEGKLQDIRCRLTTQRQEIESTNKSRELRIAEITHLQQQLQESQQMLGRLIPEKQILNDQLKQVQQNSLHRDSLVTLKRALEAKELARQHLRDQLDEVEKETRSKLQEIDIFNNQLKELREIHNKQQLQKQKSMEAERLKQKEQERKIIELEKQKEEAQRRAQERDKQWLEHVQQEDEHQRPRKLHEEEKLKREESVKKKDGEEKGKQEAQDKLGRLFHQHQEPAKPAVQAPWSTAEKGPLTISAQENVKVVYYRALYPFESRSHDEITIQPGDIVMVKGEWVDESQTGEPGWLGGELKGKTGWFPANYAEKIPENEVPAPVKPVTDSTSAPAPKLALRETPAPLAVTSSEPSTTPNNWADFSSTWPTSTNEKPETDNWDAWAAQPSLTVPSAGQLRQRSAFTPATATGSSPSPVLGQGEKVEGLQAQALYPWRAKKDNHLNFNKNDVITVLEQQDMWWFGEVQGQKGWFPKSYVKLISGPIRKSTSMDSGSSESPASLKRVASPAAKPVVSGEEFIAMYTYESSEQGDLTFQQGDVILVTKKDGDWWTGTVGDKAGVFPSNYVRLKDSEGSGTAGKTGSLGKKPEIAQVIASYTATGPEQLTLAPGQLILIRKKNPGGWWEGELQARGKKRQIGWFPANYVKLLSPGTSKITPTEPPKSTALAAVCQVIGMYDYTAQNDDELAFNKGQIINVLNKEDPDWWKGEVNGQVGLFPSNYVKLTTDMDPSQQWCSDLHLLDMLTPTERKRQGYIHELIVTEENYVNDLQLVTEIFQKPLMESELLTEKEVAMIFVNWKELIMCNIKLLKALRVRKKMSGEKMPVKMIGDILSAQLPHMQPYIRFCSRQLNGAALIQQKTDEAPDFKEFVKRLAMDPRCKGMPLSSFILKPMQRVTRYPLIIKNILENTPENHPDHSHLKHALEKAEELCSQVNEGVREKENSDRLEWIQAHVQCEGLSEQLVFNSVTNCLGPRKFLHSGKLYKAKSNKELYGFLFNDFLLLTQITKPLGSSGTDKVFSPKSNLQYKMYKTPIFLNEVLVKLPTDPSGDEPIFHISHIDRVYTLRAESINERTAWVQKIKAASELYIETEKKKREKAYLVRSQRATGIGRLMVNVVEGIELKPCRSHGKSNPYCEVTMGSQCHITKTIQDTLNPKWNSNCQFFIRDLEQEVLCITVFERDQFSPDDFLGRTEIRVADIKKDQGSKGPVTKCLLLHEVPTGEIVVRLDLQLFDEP
The species named for a further assay is Homo sapiens. In words: Inhibition of GST-tagged human TrioN (1284 to 1711 residues) RhoGEF-catalyzed guanine nucleotide-exchange reaction of human full length Rac1 (1 to 192 residues) by measuring inhibition of the GDP dissociation from Rac1 at 0.76 to 250000 nM by Alexa 647 fluorescence dye based GDP/GTP exchange assay.
For assay [22], the target named is T2, Rho guanine nucleotide exchange factor 12. Briefly: Inhibition of human LARG (765 to 1138 residues) RhoGEF-catalyzed guanine nucleotide-exchange reaction of human full length RhoA (1 to 193 residues) by measuring inhibition of the GDP dissociation from RhoA by Alexa 647 fluorescence dye based GDP/GTP exchange assay.
Assay [23] has as its target T1, RhoGEF 1/Transforming protein RhoA (Homo sapiens). Briefly: Inhibition of GFP-tagged human p115 RhoGEF DH-PH module expressed in mouse NIH/3T3 cells assessed as reduction in human full length RhoA (1 to 193 residues) interaction with p115 RhoGEF at 30 to 50 uM incubated for 1 hr by Western blot analysis based GST-RhoA pull-down assay. It is filed as cell-based. (In general: Immunoblotting shows a protein as a band on a membrane.)

Activity calls are given as the source filed them. The rule behind the calls is not given here.

Chain of Transforming protein RhoA (Homo sapiens), P61586 [Q63L] (P61586 whole entry Q63L): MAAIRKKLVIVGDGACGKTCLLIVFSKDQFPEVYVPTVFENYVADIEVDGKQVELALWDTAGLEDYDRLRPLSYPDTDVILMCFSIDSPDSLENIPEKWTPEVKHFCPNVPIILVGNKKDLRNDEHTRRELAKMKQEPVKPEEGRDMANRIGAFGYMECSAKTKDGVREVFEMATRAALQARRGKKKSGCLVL
T2 sequence (Q9NZN5 whole entry, the tested form may be a part): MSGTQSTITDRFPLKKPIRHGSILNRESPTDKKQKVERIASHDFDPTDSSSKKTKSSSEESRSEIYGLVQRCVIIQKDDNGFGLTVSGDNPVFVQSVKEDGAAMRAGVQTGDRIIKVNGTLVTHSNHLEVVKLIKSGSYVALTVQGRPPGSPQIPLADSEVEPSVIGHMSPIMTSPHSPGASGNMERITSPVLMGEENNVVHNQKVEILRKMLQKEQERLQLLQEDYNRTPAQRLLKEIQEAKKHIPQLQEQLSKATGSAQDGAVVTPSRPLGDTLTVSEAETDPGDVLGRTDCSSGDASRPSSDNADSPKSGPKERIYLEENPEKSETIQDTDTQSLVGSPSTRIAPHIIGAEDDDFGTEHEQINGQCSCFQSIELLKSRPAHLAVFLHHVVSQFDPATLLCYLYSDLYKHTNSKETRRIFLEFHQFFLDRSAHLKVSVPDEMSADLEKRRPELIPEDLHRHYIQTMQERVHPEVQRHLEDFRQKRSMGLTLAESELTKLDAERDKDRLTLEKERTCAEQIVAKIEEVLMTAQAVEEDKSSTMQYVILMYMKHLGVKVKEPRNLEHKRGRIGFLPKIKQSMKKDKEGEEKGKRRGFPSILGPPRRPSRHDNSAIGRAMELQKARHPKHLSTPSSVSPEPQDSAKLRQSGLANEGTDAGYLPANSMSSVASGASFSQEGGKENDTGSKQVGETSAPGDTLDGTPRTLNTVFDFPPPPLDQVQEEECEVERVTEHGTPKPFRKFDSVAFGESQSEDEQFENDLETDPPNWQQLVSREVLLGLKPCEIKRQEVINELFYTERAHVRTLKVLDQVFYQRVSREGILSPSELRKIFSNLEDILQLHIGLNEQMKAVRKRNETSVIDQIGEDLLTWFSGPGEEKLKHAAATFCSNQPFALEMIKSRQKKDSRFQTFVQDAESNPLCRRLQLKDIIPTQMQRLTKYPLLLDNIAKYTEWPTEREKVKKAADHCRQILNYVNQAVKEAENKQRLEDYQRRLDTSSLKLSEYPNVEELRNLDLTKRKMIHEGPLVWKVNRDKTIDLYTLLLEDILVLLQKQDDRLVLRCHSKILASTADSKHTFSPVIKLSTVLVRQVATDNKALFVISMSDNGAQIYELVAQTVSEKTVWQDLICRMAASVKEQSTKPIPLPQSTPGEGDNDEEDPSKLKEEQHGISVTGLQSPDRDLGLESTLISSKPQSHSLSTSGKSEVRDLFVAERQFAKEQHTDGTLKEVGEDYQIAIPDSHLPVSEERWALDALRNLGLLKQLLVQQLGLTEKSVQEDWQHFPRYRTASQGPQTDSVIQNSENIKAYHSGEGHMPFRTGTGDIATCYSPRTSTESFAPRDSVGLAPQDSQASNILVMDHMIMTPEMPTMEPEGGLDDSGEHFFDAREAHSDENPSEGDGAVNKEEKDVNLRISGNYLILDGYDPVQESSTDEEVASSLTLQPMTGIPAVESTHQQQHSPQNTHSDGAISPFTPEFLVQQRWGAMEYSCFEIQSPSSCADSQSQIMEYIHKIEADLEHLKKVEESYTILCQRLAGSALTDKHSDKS

With `Cc1cccc(COc2cccc(/C=C3\C(=O)NN(c4ccccc4)C3=O)c2)c1`, the inhibition entry with MCF7 [1] is “Dose-dependent effect”; in the assay with MCF7 [2], 70%; in the assay with MCF7 [3] it was “Dose-dependent effect”; in the assay filed under Mus musculus [14], 50%; in [22], “Dose-dependent effect”. Further, the fold change (FC) with MCF7 [4] worked out at 0.27; in the assay filed under Mus musculus [6] it was 1.19; in the assay listed under Mus musculus [7] it was 0.25; in the assay filed under Mus musculus [8], 0.46; in the assay filed under Mus musculus [9], 1.26; in the assay listed under Mus musculus [10], 0.26. Moreover, the fold change (FC) amounted to 0.57 in assay [11], 0.61 in assay [12] and 0.73 in assay [13]. Also, the inhibition result (with MCF7 [5]; in the assay listed under Mus musculus [19]; in the assay listed under Mus musculus [20]; in assay [23]) was “Active” in each case. Also, in assay [15], the IC50 came out at 1000 nM. Further, the inhibition entry (in assay [16]; in [17]; in the assay listed under Mus musculus [18]; in assay [21]; in the assay listed under Homo sapiens) was “inactive” each time.

The inhibition is the relative decrease from the control value, in per cent. For orientation: IC50 means the point on the concentration scale where inhibition reaches its midpoint.

The record behind these values is ChEMBL document CHEMBL4419173, “Small-molecule inhibitors targeting g-protein-coupled rho guanine nucleotide exchange factors” (2014).
